Experimental data from US20150307938A1, “METHOD TO IDENTIFY A NOVEL CLASS OF IMMUNOLOGIC ADJUVANTS” (Lancell, L.L.C., priority 2011, published 2015).
Marks after values point to notes of the source that are not given here.

Test system: full thickness skin
Assay: Whole genome array of skin gene expression after topical DBP (time course)
Type: in vivo, C57BL/6J mice
Description: Mice: C57BL/6J female mice obtained from The Jackson Laboratory were used between 8 and 12 weeks of age.
Treatment: Mice were untreated or treated topically on the dorsal side of each ear with […] of dibutylphthalate (DBP). At the designated time points after treatment, the animals were euthanized and the ears washed with 70% isopropanol. Full thickness skin was obtained from the dorsal side of both ears and placed immediately in liquid nitrogen. The time between euthanasia and placement of both skin samples in liquid nitrogen was less than 1 minute. Each sample for RNA extraction contained two dorsal ear skin samples obtained from a single mouse both of whose ears received the same treatment.
RNA Extraction: While in liquid nitrogen, the skin was pulverized with a motorized mortar and pestle (CryoGrinder), transferred by inversion of the mortar directly into 1.5 ml cryogenic vials (Nalgene) and stored in liquid nitrogen until RNA extraction. Total RNA from both ears was extracted by homogenization (Pro200) in TRIzol Reagent (Invitrogen) with 7.5 μg of RNase-free glycogen added to the mixture, according to the manufacturer's directions. The RNA was purified on a solid phase RNeasy MinElute Cleanup column (Qiagen) and eluted with 17 μL of RNase-free water. The samples were stored at −20° C. until use.
Quantification of RNA: RNA yields were quantified by UV absorption using a NanoDrop NG-1000 spectrophotometer, where 1 AU 260 equals 40 μg RNA/ml. Purity was estimated by the 260 and 280 nm absorbance ratio; values between 1.7 and 2.1 were considered acceptable.
Assessment of RNA Quality: The quality of sample RNA was assessed using a RNA 6000 LABCHIP Kit on an Agilent 2100 Bioanalyzer. The Bioanalyzer determines the integrity/purity of the RNA samples and permits the screening of total and mRNA sample degradation and ribosomal RNA contamination. An RNA 6000 ladder was also loaded on a specified well and used as a reference for data analysis and a built-in quality control measure. The quality and integrity of the RNA was determined through visual inspection of each electropherogram. In general, only samples with a RIN (RNA integrity number) of 7 or greater, as determined by the Bioanalyzer, were used for gene arrays. This quality control analysis was repeated following the labeling procedure to ensure that the probes were efficiently labeled and had the correct size before hybridization to the chips. All samples that were run on genome wide arrays were obtained as independent duplicates from two individual mice.
Microarray Data Interpretation: Gene expression was compared between untreated and treated total RNA samples. “Transition” data, which represent the change in expression level for a given gene, are presented as a “weighted difference.” Changes in gene expression level were considered to be significant when the adjusted p values were less than […]. The “gene expression signature” arbitrarily includes only those genes that were transcribed with a weighted increase of 2.0 or greater, which was sustained over the subsequent time points tested.
The weighted difference is a metric that takes into account both the variability between different time-points and the variability between replicates at the same time-point. The calculations are performed for each time-point transition, i.e., 30 minutes vs. 1 hour, 1 hour vs. 2 hours, etc. There are two steps to the calculation: the calculation of a modified Euclidean difference between the two time-points, and the calculation of the Euclidean difference between the replicates within each time-point. The first measure is an unweighted difference, while the final metric given in the spreadsheet “weights” this difference by taking into account the second measure.
In a Euclidean difference calculation, each data point is considered as a vector in a multi-dimensional space, and the actual straight-line distance between the data points is calculated. […]

SMILES: CCCCOC(=O)c1ccccc1C(=O)OCCCC [DBP, dibutylphthalate]
- % Shared (DBP-induced genes also TLR-induced) (15 min): 64%
- DBP Unique genes, number (15 min): 12
- TLR-Induced among DBP-induced genes, number (15 min): 21^
- DBP-Induced genes (≧2x Increased Expression), number (15 min, early response genes): 33*
- Acot5 Change in Gene Expression (Weighted Difference) (15 min to 30 min Transition): 1.225
- Akr1c18 Change in Gene Expression (Weighted Difference) (15 min to 30 min Transition): −0.6119
- Atp2c2 Change in Gene Expression (Weighted Difference) (15 min to 30 min Transition): 0.1754
- Btg2 Change in Gene Expression (Weighted Difference) (15 min to 30 min Transition): 5.994
- Ccr4 Change in Gene Expression (Weighted Difference) (15 min to 30 min Transition): −0.287
- Cdh10 Change in Gene Expression (Weighted Difference) (15 min to 30 min Transition): 0.1979
- Cish Change in Gene Expression (Weighted Difference) (15 min to 30 min Transition): 1.725
- Cox17 Change in Gene Expression (Weighted Difference) (15 min to 30 min Transition): −0.6572
- Cysltr1 Change in Gene Expression (Weighted Difference) (15 min to 30 min Transition): −1.813
- Egr1 Change in Gene Expression (Weighted Difference) (15 min to 30 min Transition): 4.967
- Egr2 Change in Gene Expression (Weighted Difference) (15 min to 30 min Transition): 1.229
- Frk Change in Gene Expression (Weighted Difference) (15 min to 30 min Transition): −5.361
- Gbp8 Change in Gene Expression (Weighted Difference) (15 min to 30 min Transition): 0.5698
- Gem Change in Gene Expression (Weighted Difference) (15 min to 30 min Transition): 2.697
- Gimap7 Change in Gene Expression (Weighted Difference) (15 min to 30 min Transition): −0.2249
- Ier3 Change in Gene Expression (Weighted Difference) (15 min to 30 min Transition): 12.73
- Il10ra Change in Gene Expression (Weighted Difference) (15 min to 30 min Transition): 2.226
- Jun Change in Gene Expression (Weighted Difference) (15 min to 30 min Transition): 1.717
- Junb Change in Gene Expression (Weighted Difference) (15 min to 30 min Transition): 3.924
- LOC100046066 Change in Gene Expression (Weighted Difference) (15 min to 30 min Transition): −2.104
- Madcam1 Change in Gene Expression (Weighted Difference) (15 min to 30 min Transition): 0.2824
- Med17 Change in Gene Expression (Weighted Difference) (15 min to 30 min Transition): −0.2295
- Mkks Change in Gene Expression (Weighted Difference) (15 min to 30 min Transition): −2.533
- Mndal Change in Gene Expression (Weighted Difference) (15 min to 30 min Transition): 1.805
- Myc Change in Gene Expression (Weighted Difference) (15 min to 30 min Transition): 2.987
- N6amt2 Change in Gene Expression (Weighted Difference) (15 min to 30 min Transition): −0.7998
- Nr4a1 Change in Gene Expression (Weighted Difference) (15 min to 30 min Transition): 5.842
- P2ry1 Change in Gene Expression (Weighted Difference) (15 min to 30 min Transition): −2.116
- Prf1 Change in Gene Expression (Weighted Difference) (15 min to 30 min Transition): −0.05377
- Sik1 Change in Gene Expression (Weighted Difference) (15 min to 30 min Transition): 2.597
- Slc39a8 Change in Gene Expression (Weighted Difference) (15 min to 30 min Transition): 25.27
- Tmed3 Change in Gene Expression (Weighted Difference) (15 min to 30 min Transition): −0.4993
- Zfp36 Change in Gene Expression (Weighted Difference) (15 min to 30 min Transition): 10.7
- % Shared (DBP-induced genes also TLR-induced) (30 min): 64%
- DBP Unique genes, number (30 min): 107
- DBP-Induced genes (≧2x Increased Expression), number (30 min): 297
- TLR-Induced among DBP-induced genes, number (30 min): 190^#
- Acot5 Change in Gene Expression (Weighted Difference) (30 min to 1 hr Transition): 1.878
- Akr1c18 Change in Gene Expression (Weighted Difference) (30 min to 1 hr Transition): 1.114
- Atp2c2 Change in Gene Expression (Weighted Difference) (30 min to 1 hr Transition): −0.008704
- Btg2 Change in Gene Expression (Weighted Difference) (30 min to 1 hr Transition): 2.926
- Ccr4 Change in Gene Expression (Weighted Difference) (30 min to 1 hr Transition): 0.2055
- Cdh10 Change in Gene Expression (Weighted Difference) (30 min to 1 hr Transition): 0.2384
- Cish Change in Gene Expression (Weighted Difference) (30 min to 1 hr Transition): 1.825
- Cox17 Change in Gene Expression (Weighted Difference) (30 min to 1 hr Transition): −0.02512
- Cysltr1 Change in Gene Expression (Weighted Difference) (30 min to 1 hr Transition): 0.06681
- Egr1 Change in Gene Expression (Weighted Difference) (30 min to 1 hr Transition): 5.495
- Egr2 Change in Gene Expression (Weighted Difference) (30 min to 1 hr Transition): 2.326
- Frk Change in Gene Expression (Weighted Difference) (30 min to 1 hr Transition): 3.985
- Gbp8 Change in Gene Expression (Weighted Difference) (30 min to 1 hr Transition): 0.1048
- Gem Change in Gene Expression (Weighted Difference) (30 min to 1 hr Transition): 3.044
- Gimap7 Change in Gene Expression (Weighted Difference) (30 min to 1 hr Transition): −0.004049
